Laboratory results taken from patent publication US8426179B2, “Synthetic peptide and peptide conjugates and related tissue coupling methods via transglutaminase enzyme” (priority 2007, dated 2013).
No end group written: not given here.

Columns and labels:
[1] = system: Fresh articular cartilage; conditions: in the presence of enzyme
cartilage sections = experiment: Coupling of peptide conjugates to cartilage sections via tTG, fluorescein anti-biotin staining; assay type: biochemical, bovine; conditions: in the presence of tTG, 50 μM conjugate, 0.5 U/mL tTG, 30 min at 37° C.
Description: Partial depolymerization of glycosaminoglycans in the tissue was accomplished by digesting with chondroitinase ABC at 40 mU/mL in 50 mM Tris, 70 mM sodium acetate and 0.01% bovine serum albumin (BSA) at pH 8 for 30 minutes at 37° C. Samples were then rinsed 3 times with TBS and blocked with 1% BSA in TBS for one hour at room temperature. The tTG reaction conditions used were similar to a previously described method. (See, Aeschlimann D, Wetterwald A, Fleisch H, and Paulsson M. Expression of tissue transglutaminase in skeletal tissues correlates with events of terminal differentiation of chondrocytes. Journal of Cell Biology 1993; 120: 1461-1470.) The cartilage sections were incubated in 500 μL of 50 μM peptide or peptide-PEG conjugate, 0.5 U/mL tTG, 5 mM CaCl2, 2.5 mM dithiothreitol and 100 mM Tris, at pH 8.3 for 30 min at 37° C. Control experiments were performed in the absence of tTG. After completion of the tTG reaction, the solution was removed and samples were rinsed 3 times with 1% BSA in TBS for 5 minutes each. The cartilage sections were then incubated with fluorescein conjugated anti-biotin antibody at 10 μg/mL in 1% BSA in TBS for 2 hours at room temperature. Samples were rinsed 4 times with TBS for 5 minutes each, followed by blocking with 10% donkey serum for 1 hour and incubation with rabbit anti-collagen II antibody in TBS containing 10% donkey serum for 1 hour. The samples were rinsed 3 times with 10% donkey serum in TBS and then incubated with Texas Red conjugated donkey anti-rabbit antibody. Samples were rinsed again with TBS and then imaged using a Leica epifluorescent microscope (λex=495 nm, λem=520 for fluorescein and λex=596 nm, λem=620 for Texas Red) and a SPOT RT digital camera (Diagnostic Instruments, Sterling Heights, Mich.).
Images were analyzed using Metamorph image analysis software (Molecular Devices, Sunnyvale, Calif.). Fluorescein fluorescence was measured at three randomly selected areas of the middle zone on each cartilage section image and then averaged. A similar procedure was utilized to determine Texas Red fluorescence. The fluorescein fluorescence intensity was then normalized to the fluorescence of the Texas Red for each cartilage section image in order to account for potential ECM differences between sections. Finally, the average green fluorescence for each peptide-PEG conjugate was then normalized by dividing by the red fluorescence.

tTG = target: T1, tTG (UniProt P08587); conditions: reactivity with the enzyme (tTG); cited from earlier work
T1 sequence (P08587 1-690): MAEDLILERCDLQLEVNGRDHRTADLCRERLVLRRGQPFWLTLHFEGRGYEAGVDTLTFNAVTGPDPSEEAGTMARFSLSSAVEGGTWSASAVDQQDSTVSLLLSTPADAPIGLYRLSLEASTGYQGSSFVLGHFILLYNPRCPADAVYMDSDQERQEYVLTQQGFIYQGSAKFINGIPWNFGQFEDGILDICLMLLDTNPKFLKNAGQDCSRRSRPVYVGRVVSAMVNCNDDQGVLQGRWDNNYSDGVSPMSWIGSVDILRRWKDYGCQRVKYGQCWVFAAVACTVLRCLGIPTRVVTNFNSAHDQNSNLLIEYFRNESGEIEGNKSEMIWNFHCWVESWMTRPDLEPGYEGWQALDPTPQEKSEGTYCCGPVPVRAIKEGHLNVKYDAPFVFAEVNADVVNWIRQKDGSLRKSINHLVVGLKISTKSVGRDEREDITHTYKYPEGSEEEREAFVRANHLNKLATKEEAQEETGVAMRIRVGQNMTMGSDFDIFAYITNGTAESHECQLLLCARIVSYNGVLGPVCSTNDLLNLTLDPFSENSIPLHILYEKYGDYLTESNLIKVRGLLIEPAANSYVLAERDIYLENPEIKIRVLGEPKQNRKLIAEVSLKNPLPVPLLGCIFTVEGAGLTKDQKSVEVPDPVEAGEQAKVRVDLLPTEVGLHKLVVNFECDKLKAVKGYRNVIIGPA

[2] = Hydrolysis of the hydrocortisone prodrugs in solution (buffers); assay type: physicochemical; conditions: Buffer 1, 4° C.
Description: This solution also contained 2 mM 6α-methyl prednisolone as an internal standard. The samples were then stored at −20° C. until analyzed with RP-HPLC and eluted with a linear gradient of 24-55% acetonitrile in water with 0.1% TFA. The amount of hydrocortisone hydrolyzed from the prodrug was determined by comparing its peak area to that of 6α-methyl prednisolone. […] Thirty microliter samples were collected at 10, 20, 30, and 60 minutes and analyzed as previously described.

[3] = system: articular surface of cartilage; experiment: Coupling of hydrocortisone prodrugs to the articular surface of cartilage via tTG; assay type: biochemical, bovine; conditions: 1.0 mM prodrug with tTG, immunohistochemistry and quantification
Description: Modified tissue samples were immersed in tissue freezing media and frozen at −80° C. until use. Tissue slices (25 μm thick) were cut using a cryostat (Microm HM505N, Carl Zeiss) and the freezing media was removed with 3 washes of Buffer 1. Blocking was performed with 4% goat serum in Buffer 1 (blocking buffer) for 1 hour at room temperature. The tissue sections were then incubated with 10 μg/mL mouse anti-hydrocortisone antibody for 1.5 h in the blocking buffer at room temperature, rinsed 3 times with Buffer 1 for 5 minutes each, and then incubated with fluorescein conjugated goat anti-mouse antibody (1/200) in blocking buffer for 1 hour. Samples were rinsed again with Buffer 1 and then imaged using a Leica epifluorescent microscope (λex=495 nm, λem=520 nm for fluorescein) and a SPOT RT digital camera (Diagnostic Instruments, Sterling Heights, Mich.).

For Biotin-FKG-HA, the “anti-biotin antibody staining of tissue surface” value [1] was “intense staining”.

For FKG, the “coupling to cartilage (anti-biotin fluorescence)” value (cartilage sections) is listed as “bind to cartilage surfaces via tTG” and the specificity (tTG) is listed as 560 mM⁻¹ min⁻¹.

For “GQQQLG (GQQQLG-NH2) [glutamine (acyl donor) peptide substrate of tTG]”, the “coupling to cartilage (anti-biotin fluorescence)” value (cartilage sections) is given as “bind to cartilage surfaces via tTG” and the specificity (tTG) is given as 34.1 mM⁻¹ min⁻¹.

In the case of hydrocortisone-GFKG-PEG [TRIP-PC], the T50% of hydrolysis [2] is reported as 57.8 h and the “bound hydrocortisone, TRIP-C compared with TRIP-PC” value [3] is reported as “no detectable difference in bound hydrocortisone”.
